Among the data in patent publication US20070037752A1, “Novel alanyl-amino peptidase inhibitors for functionally influencing different cells and treating immunological, inflammatory, neuronal, and other diseases” (priority 2003, published 2007) are IC50 values, retold here.

Read-outs that look alike come from different tables or passages of the source.

The target in this assay is alanyl aminopeptidases (APN) (Homo sapiens, UniProt P15144). The experiment in a line: Inhibition of alanyl aminopeptidase enzymatic activity, fluorogenic substrate (Ala)2-rhodamine 110. The class given is biochemical. As for the experimental part:
The inhibition characteristics measured are referred to as IC-50 values or ID50 values (the latter marked with “*”) for said enzyme. The enzymatic activity was determined by means of the fluorogenic substrate/product (Ala)2-rhodamine 110.

Setting [1] is: Table 3, starred values = ID50, read-out: ID50 APN (values marked with *).
The mark [2] stands for this setting: Table 4, unstarred values, read-out: IC50APN.

Chain of alanyl aminopeptidases (APN) (P15144 whole entry, species assumed): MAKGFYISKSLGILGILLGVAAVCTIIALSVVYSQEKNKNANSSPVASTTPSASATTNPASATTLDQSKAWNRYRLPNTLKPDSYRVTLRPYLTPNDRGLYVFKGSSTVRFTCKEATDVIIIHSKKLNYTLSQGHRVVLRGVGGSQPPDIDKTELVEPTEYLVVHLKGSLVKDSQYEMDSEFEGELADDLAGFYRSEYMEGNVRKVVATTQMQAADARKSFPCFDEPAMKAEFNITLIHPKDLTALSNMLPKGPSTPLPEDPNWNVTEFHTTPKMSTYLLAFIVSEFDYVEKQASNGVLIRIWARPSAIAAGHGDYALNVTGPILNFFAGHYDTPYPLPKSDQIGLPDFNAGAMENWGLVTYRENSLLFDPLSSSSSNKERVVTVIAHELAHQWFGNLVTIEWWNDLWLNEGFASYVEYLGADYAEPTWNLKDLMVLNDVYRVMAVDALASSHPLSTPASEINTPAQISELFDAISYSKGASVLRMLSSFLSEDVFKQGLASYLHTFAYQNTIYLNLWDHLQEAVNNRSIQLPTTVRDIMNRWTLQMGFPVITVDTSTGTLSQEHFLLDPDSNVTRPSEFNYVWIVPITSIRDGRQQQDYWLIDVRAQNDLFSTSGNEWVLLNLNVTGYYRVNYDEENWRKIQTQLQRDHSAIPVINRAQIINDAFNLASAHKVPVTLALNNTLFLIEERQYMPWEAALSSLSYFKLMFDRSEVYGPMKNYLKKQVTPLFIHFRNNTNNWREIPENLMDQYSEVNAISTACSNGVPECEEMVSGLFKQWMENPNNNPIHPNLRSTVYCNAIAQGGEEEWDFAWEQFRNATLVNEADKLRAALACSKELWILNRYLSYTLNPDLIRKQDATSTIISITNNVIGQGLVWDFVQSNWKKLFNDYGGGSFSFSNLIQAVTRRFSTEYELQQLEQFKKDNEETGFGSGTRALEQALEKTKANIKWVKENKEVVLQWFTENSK

Take `CN1C(=O)C(Cc2c[nH]c3ccccc23)NC1=S` (stereo not shown) [A3.330]: the IC50 under setting [1] came to 146 µM.
As for `C/C(=N\NC(=O)c1ccco1)c1ccc(C)o1` [A3.331], the IC50 (Table 3, unstarred values, read-out: IC50APN) was found to be 152 µM.
Consider `CCCC1NC(=S)N(c2ccccc2)C1=O` (stereo not shown) [A3.332], for which the IC50 under setting [1] was 154 µM.
Regarding `O=C(CNC(=O)c1cccc(F)c1)N/N=C/c1ccco1` [A3.333], the IC50 under setting [1] worked out at 155 µM.
Consider `C/C(=N\NC(=O)c1cc(-c2ccco2)n[nH]1)c1ccco1` [A3.334], for which the IC50 under setting [1] was 161 µM.
The same measure, in the same setting: for `COc1cc(C(=O)NCC(=O)N/N=C\c2ccc(C)o2)cc(OC)c1OC` [A3.335] the value was 161 µM.
`CCOC(=O)c1c(-c2ccccc2)c[nH]c1N` [A3.336]: the IC50 under setting [1] was 169 µM.
On the same count and under the same terms, for `O=C(CN1C(=O)C2C3C=CC(C3)C2C1=O)Nc1ccc(C(F)(F)F)cc1` (stereo not shown) [A3.337] the value was 223 µM; for `CN(C)c1ccc(C2NCCS2)cc1` (stereo not shown) [A3.338], 230 µM.
Same read-out and setting: the same measure for `O=C(/C=C/c1ccco1)NCCCN1CCOCC1` [A3.339]: 208 µM.
As to `COc1cccc(C(=O)NCC(=O)N/N=C/c2ccc([N+](=O)[O-])o2)c1` [A3.340], the IC50 under setting [1] worked out at 222 µM.
The same measure, in the same setting: the same measure for `COC(=O)c1cc(C(=O)NC2CCSC2=O)cc([N+](=O)[O-])c1` (stereo not shown) [A3.341]: 238 µM; for `COc1ccc(C2C(C(=O)c3ccccc3)C(c3ccccc3)C(C(=O)NCc3ccc(F)cc3)N2C(=O)NC2CCCCC2)cc1` (stereo not shown) [A3.342]: 231 µM; for `C/C(=C\c1ccc(C(C)C)cc1)C1NCC(c2ccc([N+](=O)[O-])cc2)O1` (stereo not shown) [A3.345]: 293 µM.
`O=C(N/N=C/c1ccco1)c1ccc(NCc2ccccc2)cc1` [A3.346]: the IC50 under setting [1] turned out to be 294 µM.
Take `O=C(N/N=C/c1ccco1)c1ccc([N+](=O)[O-])cc1` [A3.347]: the IC50 under setting [1] was 305 µM.
The same measure, in the same setting: the same measure for `CC(C)(C)c1ccc2c(c1)C1c3ccc(C(C)(C)C)cc3C2C2C(=O)N(c3cccc(Cl)c3)C(=O)C12` (stereo not shown) [A3.348]: 321 µM.
The same measure, in the same setting: for `C/C(=N\NC(=O)c1ccn(C)n1)c1ccco1` [A3.349] the value was 323 µM.
The same measure, in the same setting: the same measure for `CCc1ccc(N2C(=O)C3C(c4cccc(Cl)c4)OC4(C(=O)c5ccccc5C4=O)C3C2=O)cc1` (stereo not shown) [A3.350]: 336 µM; for `C/C(=N\NC(=O)COc1ccc(C)cc1[N+](=O)[O-])c1ccco1` [A3.351]: 422 µM.
For `CCOc1ccc(C(=O)N/N=C(/C)c2ccco2)cc1` [A3.352], the IC50 under setting [1] amounted to 451 µM.
On to `C/C(CC1N=NC([N+](=O)[O-])=N1)=N/NC(=O)COc1ccccc1[N+](=O)[O-]` (stereo not shown) [A4.001], for which the IC50 under setting [2] was 3.4 µM.
Still for that read-out and setting: the same measure for `COc1ccc(/C=N/NC(=O)C2=C(C)Nc3ccccc3S2)cc1Cn1nc(C)c(Br)c1C` [A4.002]: 4.8 µM; for `COc1cc(Br)ccc1OCC(=O)N/N=C/c1cc(O)c(O)c(Br)c1Br` [A4.003]: 5 µM; for `CCN(CC)c1ccc(/C=C(/NC(=O)c2ccccc2)C(=O)N/N=C/c2cc(I)c(O)c(I)c2)cc1` [A4.004]: 5.1 µM.
Same read-out and setting: for `O=C(N/N=C/c1cc(Cl)cc([N+](=O)[O-])c1O)c1ccccc1O` [A4.005] the value was 5.8 µM.
For the compound `Cc1c(Cl)cccc1NC(=O)C(=O)N/N=C/c1c(OCc2ccccc2)ccc2ccccc12` [A4.006], the IC50 under setting [2] was found to be 6.6 µM.
Still for that read-out and setting: for `CCc1cccc(CC)c1NC(=S)N/N=C1\C(=O)N(CN2CC(C)CC(C)C2)c2ccccc21` (stereo not shown) [A4.007] the value was 6.7 µM.
On the same count and under the same terms, for `Cc1ccc(/C=N/NC(=O)c2cn(-c3nonc3N)nn2)o1` [A4.008] the value was 6.9 µM; for `O=C(Cc1ccc(Br)c2ccccc12)N/N=C/c1ccc([N+](=O)[O-])c(O)c1` [A4.009], 7 µM.
On the same count and under the same terms, the same measure for `COc1cc(Br)cc(Br)c1OCC(=O)N/N=C/c1cc(O)c(O)c(Br)c1Br` [A4.010]: 7.2 µM; for `CCN(CC)c1ccc(/C=C(\NC(=O)c2ccccc2)C(=O)N/N=C/c2ccc(O)c([N+](=O)[O-])c2)cc1` [A4.011]: 7.6 µM; for `Cc1cccc(NCC(=O)N/N=C/c2cc(Br)c(O)c(O)c2Br)c1` [A4.012]: 7.8 µM.
Turning to `O=C(N/N=C\c1ccco1)c1ccc(S(=O)(=O)N2CCCCCC2)cc1` [A4.013], under setting [2], the IC50 turned out to be 8 µM.
Same read-out and setting: the same measure for `Cc1ccc(/C=N/NC(=O)c2cccc(NC(=O)c3ccc(F)cc3)c2)o1` [A4.014]: 9.8 µM.
As for `Cc1ccc(/C=N/NC(=O)c2cccc(Cl)c2)o1` [A4.015], under setting [2], the IC50 was 10.5 µM.
The same measure, in the same setting: the same measure for `Cc1ccc(/C=N/NC(=O)c2cn(-c3nonc3N)nn2)o1` [A4.016]: 10.9 µM; for `COc1cc(Br)ccc1OCC(=O)N/N=C/C=C/c1ccco1` [A4.017]: 11 µM; for `CC(NC(=O)C(=O)N/N=C\c1cc([N+](=O)[O-])ccc1O)c1ccccc1` (stereo not shown) [A4.018]: 11.4 µM.
Same read-out and setting: the same measure for `C/C(=N\NC(=O)CNC(=O)/C=C/c1ccco1)c1ccc2ccccc2c1` [A4.019]: 12 µM.
Same read-out and setting: for `CCOc1cc(/C=N/NC(=O)CNC(=O)c2cccc(Cl)c2)ccc1OC(=O)c1cccs1` [A4.020] the value was 12.2 µM.
Take `Cc1nc(C)c(C(=O)N/N=C/c2ccco2)s1` [A4.021]: the IC50 under setting [2] turned out to be 12.3 µM.
As to `COCc1c(C(=O)N/N=C/c2ccc(C)o2)nnn1-c1nonc1N` [A4.022], the IC50 under setting [2] came out at 12.5 µM.
On the same count and under the same terms, the same measure for `O=C(COc1cccc2ccccc12)N/N=C/c1ccco1` [A4.023]: 12.9 µM; for `COc1cc(Br)cc(Br)c1OCC(=O)N/N=C/c1cc(Br)c(O)c(O)c1Br` [A4.024]: 13.2 µM.
`COC(=O)N/N=C(C)\C=C\c1ccco1` [A4.025]: the IC50 under setting [2] came to 13.5 µM.
On the same count and under the same terms, for `O=C(COc1ccc(F)cc1)N/N=C/c1ccco1` [A4.026] the value was 13.6 µM.
Still for that read-out and setting: the same measure for `CCc1ccc(-c2cc(C(=O)N/N=C/c3c(C)nn(-c4ccccc4)c3C)[nH]n2)cc1` [A4.027]: 13.6 µM.
On the same count and under the same terms, for `O=C(NN=C(/C=C/c1ccccc1)c1ccccc1)c1cc2ccccc2cc1O` [A4.028] the value was 13.7 µM; for `O=C(COc1ccc2ccccc2c1)N/N=C/c1ccco1` [A4.029], 13.9 µM; for `O=C(N/N=C/c1ccco1)c1cc(C2CC2)n[nH]1` [A4.030], 14.3 µM.
For the compound `O=C(N/N=C/c1ccco1)c1cc(-c2ccc(F)cc2)n[nH]1` [A4.031], the IC50 under setting [2] worked out at 14.4 µM.
Still for that read-out and setting: for `N/C(=N\N=C\c1ccco1)c1nonc1N` [A4.032] the value was 14.6 µM; for `COc1ccc(OCC(=O)N/N=C/c2cc(Br)c(O)c(O)c2Br)c(Br)c1` [A4.033], 15 µM.
The same measure, in the same setting: for `O=C(CNC(=O)C(c1ccccc1)c1ccccc1)N/N=C/c1ccco1` [A4.034] the value was 15.6 µM.
Consider `CC(C)C/C=N/NC(=O)c1ccc([N+](=O)[O-])cc1Cl` [A4.035], for which, under setting [2], the IC50 worked out at 15.6 µM.
Still for that read-out and setting: for `O=C(N/N=C/C=C\c1ccco1)c1ccco1` [A4.036] the value was 16 µM; for `O=C(N/N=C/c1ccco1)c1ccccc1O` [A4.037], 16 µM.
On the same count and under the same terms, the same measure for `Cc1ccc(/C=N/NC(=O)COc2ccc(Cl)cc2)o1` [A4.038]: 16 µM; for `CC(C)c1cc(C(=O)N/N=C/c2ccco2)[nH]n1` [A4.040]: 16.6 µM.
Same read-out and setting: the same measure for `COc1ccc(/C=C(/NC(=O)c2ccccc2)C(=O)N/N=C\C=C\c2ccc(C)o2)cc1OC` [A4.041]: 16.7 µM.
Turning to `O=C(N/N=C/c1ccco1)c1ccc(O)cc1` [A4.042], the IC50 under setting [2] was determined as 16.8 µM.
Take `COc1cc(/C=N/NC(=O)c2cc(-c3ccco3)n[nH]2)cc(OC)c1OC` [A4.043]: the IC50 under setting [2] was 17 µM.
Same read-out and setting: for `Cc1ccc(/C=N/NC(=O)c2ccccc2Cl)o1` [A4.044] the value was 17.7 µM; for `Cc1ccc(/C=N/NC(=O)c2ccccc2OCc2ccccc2)o1` [A4.045], 18.4 µM; for `O=C(Nc1ccccc1C(=O)N/N=C/c1ccco1)c1ccc(Cl)cc1Cl` [A4.046], 18.7 µM.
Still for that read-out and setting: the same measure for `Cc1ccc(/C=N/NC(=O)c2cccc(CC(=O)c3ccccc3C)c2)o1` [A4.047]: 18.9 µM; for `Cc1cc(I)ccc1NC(=O)CCC(=O)N/N=C/c1ccco1` [A4.048]: 9.5 µM.
The same measure, in the same setting: the same measure for `Cc1ccccc1S(=O)(=O)Nc1cccc(C(=O)N/N=C/c2ccco2)c1` [A4.049]: 19.2 µM; for `CCCOc1ccccc1-c1c[nH]c(C(=O)N/N=C/c2ccco2)c1` [A4.051]: 19.5 µM.
As for `O=C(N/N=C/c1cc(Br)cc(Br)c1OC(=O)c1ccccc1)/C(=C/c1ccc2c(c1)OCO2)NC(=O)c1ccccc1` [A4.052], the IC50 under setting [2] was found to be 19.8 µM.
As for `COc1ccc(/C(C)=N/NC(=O)CNC(=O)/C=C\c2ccco2)cc1OC` [A4.053], the IC50 under setting [2] was 19.9 µM.
Same read-out and setting: the same measure for `O=C(N/N=C/c1cc([N+](=O)[O-])ccc1O)c1ccc(O)cc1O` [A4.054]: 20.2 µM; for `CC(=O)Oc1ccc([N+](=O)[O-])cc1/C=N/NC(=O)COc1cc(C)ccc1C(C)C` [A4.055]: 20.3 µM; for `COc1cc(Br)ccc1OCC(=O)N/N=C/c1cc(Br)c(O)c(O)c1Br` [A4.056]: 20.5 µM.
On the same count and under the same terms, the same measure for `O=C(N/N=C/c1ccco1)c1cccc(NC(=O)c2ccccc2Cl)c1` [A4.057]: 20.6 µM; for `O=C(N/N=C/c1ccco1)c1cc(-c2ccco2)n[nH]1` [A4.058]: 20.9 µM.
Same read-out and setting: for `O=C(COc1ccc2ccccc2c1)N/N=C/c1c(Br)cc(Br)c(O)c1Br` [A4.059] the value was 21 µM; for `COc1ccc(C(=O)N/N=C/c2cc(Br)c(C)o2)cc1` [A4.060], 21.8 µM.
Turning to `Cc1ccc(/C=N/NC(=O)COc2ccccc2C)o1` [A4.061], the IC50 under setting [2] worked out at 22.2 µM.
On the same count and under the same terms, the same measure for `O=C(N/N=C/c1ccco1)c1ccc(=O)[nH]n1` [A4.063]: 22.4 µM; for `O=C(N/N=C/c1ccco1)c1cccc(NC(=O)c2cccc(Br)c2)c1` [A4.064]: 22.4 µM.
For the compound `COc1ccc(C(=O)N/N=C/c2ccco2)cc1` [A4.065], the IC50 under setting [2] came to 22.6 µM.
On the same count and under the same terms, for `CCN(CC)c1ccc(/C=N/NC(=O)CNC(=O)/C=C/c2ccco2)cc1` [A4.066] the value was 22.8 µM; for `Cc1ccc(/C=N/NC(=O)c2ccc(NC(=O)c3ccccc3C)cc2)o1` [A4.067], 22.8 µM.
